Tests used:
[1] = tested on: chow-fed mice; assay: chronic PO fexaramine in normal chow-fed mice; assay type: in vivo
Method: FIGS. 3A-3D are line graphs and a bar graph showing the effects of fexaramine administration in normal chow-fed mice. The mice were treated with vehicle or fexaramine (100 mg/kg) via PO for 5 weeks. Data represent the mean±STD. Statistical analysis as performed with the Student's t test (*p<0.05, **p<0.01).
To investigate the physiological effects of intestinal FXR activation by fexaramine, mice were subjected to chronic fexaramine (100 mg/kg Fex) PO treatment for 5 weeks.

[2] = target: T1, Human FXR full length (Homo sapiens, UniProt Q96RI1); assay: FXR activity screen, luciferase reporter in transfected CV-1 cells; assay type: cell-based; details: fexaramine control in the retest; read-out: Fex EC50
T1 construct: Human FXR full length and RXR full length was obtained from Ronald Evans' laboratory; expressed in transfected cells; host or cells: CV-1 cells
T1 sequence (Q96RI1 1-476 isoform Q96RI1-1): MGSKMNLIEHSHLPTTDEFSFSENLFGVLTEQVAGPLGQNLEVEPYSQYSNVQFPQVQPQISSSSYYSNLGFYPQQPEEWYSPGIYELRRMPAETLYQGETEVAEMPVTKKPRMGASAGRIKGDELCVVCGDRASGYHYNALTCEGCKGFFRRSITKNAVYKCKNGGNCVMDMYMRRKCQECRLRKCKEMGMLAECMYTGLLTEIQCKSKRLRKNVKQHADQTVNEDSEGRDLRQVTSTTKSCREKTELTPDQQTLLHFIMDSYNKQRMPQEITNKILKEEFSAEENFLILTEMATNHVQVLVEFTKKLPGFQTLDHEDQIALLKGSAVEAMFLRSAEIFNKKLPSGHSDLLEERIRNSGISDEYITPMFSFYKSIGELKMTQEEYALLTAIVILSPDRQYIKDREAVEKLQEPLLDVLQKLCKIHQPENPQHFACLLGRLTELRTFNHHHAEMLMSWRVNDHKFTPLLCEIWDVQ
T1 sequence (P19793 1-462 partner): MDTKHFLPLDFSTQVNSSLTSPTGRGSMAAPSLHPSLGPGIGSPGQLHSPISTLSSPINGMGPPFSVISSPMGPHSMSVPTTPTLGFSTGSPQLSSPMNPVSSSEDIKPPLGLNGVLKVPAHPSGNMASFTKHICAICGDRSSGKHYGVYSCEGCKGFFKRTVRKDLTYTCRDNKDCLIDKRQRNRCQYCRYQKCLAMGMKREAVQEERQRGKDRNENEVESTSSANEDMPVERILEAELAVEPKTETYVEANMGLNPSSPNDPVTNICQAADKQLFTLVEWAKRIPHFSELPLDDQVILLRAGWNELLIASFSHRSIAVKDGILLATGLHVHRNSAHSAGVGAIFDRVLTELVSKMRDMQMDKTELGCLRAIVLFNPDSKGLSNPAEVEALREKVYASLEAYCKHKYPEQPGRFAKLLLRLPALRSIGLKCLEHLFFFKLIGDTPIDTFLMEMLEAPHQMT
How it was run: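 CV-1 cells in charcoal-stripped serum, transfected with full-length human FXR, RXR, FXRE-luciferase reporter and β-Gal; 48 h expression, then 24 h compound (0.001–100 μM, quadruplicate, 1:1000 DMSO dilution). Luciferase normalized to β-galactosidase; fold induction vs untreated, efficacy relative to fexaramine, EC50 by non-linear regression.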

[3] = tested on: TGR5 null mice; assay: chronic PO fexaramine in HFD-fed TGR5-null mice; assay type: in vivo; details: 100 mg/kg/day PO 5 weeks
Method: HFD-fed TGR5-null mice were treated with vehicle or fexaramine (100 mg/kg os daily for 5 weeks with HFD, n=10). (A) Ileal FXR target gene expressions (B) Serum BA levels (C) Fasting glucose levels (D) Glucose tolerance test (E) Core body temperature (F) Oxygen consumption rate (G) Carbon dioxide production (H) Gene expression in BAT (I) Body weight curve (J) Body composition by MRI (K) Insulin Tolerance Test (L) Hepatic gene expression (M) Hepatic TG levels (N) and Gene expression in soleus of TGR5 knockout mice with and without fexaramine treatment. Data represent the mean±SD. Statistical analysis was performed with the Student's t test. *p<0.05, **p<0.01.
To address this possibility, HFD-fed TGR5 null mice were chronically treated with Fex (100 mg/kg/day PO for 5 weeks). […] In particular, the anti-lipogenic effects of Fex in the liver appear to require TGR5 activation, as key hepatic lipogenic genes and liver triglyceride content were not affected by Fex treatment (FIGS. 11L, 11M).

Structure (SMILES): COC(=O)/C=C/c1cccc(N(Cc2ccc(-c3ccc(N(C)C)cc3)cc2)C(=O)C2CCCCC2)c1 [Fexaramine, fexaramine]
- weight gain, basal metabolic activity and glucose tolerance ([1]; chow-fed mice, 100 mg/kg PO 5 weeks): indistinguishable from vehicle-treated mice
- glucose homeostasis ([1]; normal chow-fed mice, range of doses): no effects observed
- EC50 [2]: 63 nM
- FXR target genes in the ileum incl. FGF15 [3]: induced
- core body temperature and metabolic rate [3]: somewhat blunted increases
- fasting glucose levels and glucose tolerance [3]: moderate improvements
- hepatic lipogenic genes and liver triglyceride content [3]: not affected
- serum BA levels [3]: lowered
- weight gain or insulin sensitivity [3]: no significant changes
